Experimental data taken from patent US20260008818A1, “CYCLIC PEPTIDE OR SALT THEREOF, AND USES THEREOF” (FUJIFILM Corporation, priority 2023, published 2026).
Bridge positions count the residues as written; N and C are the ends. Ends that are not written are not given here. COCH2 = acetyl group that carries the bridge

System: Recombinant Human FGFR1 alpha (IIIc) Fc Chimera Protein
Assay: Binding affinity of enzymatically synthesized cyclic peptide to FGFR by ELISA
Settings: luminescence signal at reaction concentration 10 nmol/L, SEQ ID NO: 39 standardized to 1, enzyme synthesis product
How it was run: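 Graded A–D from luminescence at 10 nmol/L peptide, expressed relative to SEQ ID NO: 39 after subtracting wells lacking receptor. Read-out used anti-Myc antibody (2 h, RT) with chemiluminescent substrate, following 3 h RT binding of peptide to immobilized FGFR1α(IIIc)-Fc, 5 ng per well.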

| Substance | Evaluation result of binding affinity to FGFR |
| --- | --- |
| 114 (HCSYERLQFHGHEVPFRVK(COCH2)V; thioether 2-19 (inferred)) [compound 114] | C (0.1 or more and less than 0.5) |
| 130 (HCSYSRLQFHGHEAPFRVK(COCH2)V; thioether 2-19 (inferred)) [compound 130] | B (0.5 or more and less than 0.7) |
| 191 (HCSYERLQFHGHEAPFLVK(COCH2)V; thioether 2-19 via Ac) [compound 191] | A (0.7 or more) |
| 296 (HCMYERLQFHGHEAPFRVK(COCH2)V; thioether 2-19 (inferred)) [compound 296] | A (0.7 or more) |
| 264 (ACQWGRWALQGHQVPFLTK(COCH2)I; thioether 2-19 (inferred)) [compound 264] | A (0.7 or more) |
| 253 (ICWTQLVLDGLYAPFLHK(COCH2)S; thioether 2-18 (inferred)) [compound 253] | C (0.1 or more and less than 0.5) |
| 77 (SCSYERLQFHGHEAPFRVK(COCH2)V; thioether 2-19 (inferred)) [compound 77] | A (0.7 or more) |
| 323 (HCTWERLIFLGHIAPFHVK(COCH2)R; thioether 2-19 (inferred)) [compound 323] | A (0.7 or more) |
| 336 (HCTYERLIFLGHIAPFWVK(COCH2)V; thioether 2-19 (inferred)) [compound 336] | B (0.5 or more and less than 0.7) |
| 367 (WCRTWLWFEIPFWYQK(COCH2)E; thioether 2-16) [compound 367] | C (0.1 or more and less than 0.5) |
| 188 (HCSYERLQFHGHDAPFRVK(COCH2)V; thioether 2-19 via Ac) [compound 188] | A (0.7 or more) |
| 312 (HCVWERLIFLGHIAPFWVK(COCH2)R; thioether 2-19 (inferred)) [compound 312] | C (0.1 or more and less than 0.5) |
| 305 (HCSYERLQFHGHMAPFRVK(COCH2)V; thioether 2-19 (inferred)) [compound 305] | A (0.7 or more) |
| 177 (HCSYERLQFHGHPAPFRVK(COCH2)V; thioether 2-19 (inferred)) [compound 177] | A (0.7 or more) |
| 225 (HCTWERLIFLGHIAPFWVK(COCH2)R; thioether 2-19 (inferred)) [compound 225] | C (0.1 or more and less than 0.5) |
| 170 (HCSYERLQFNGHEAPFRVK(COCH2)V; thioether 2-19 (inferred)) [compound 170] | B (0.5 or more and less than 0.7) |
| 196 (HCSYERLQFHGHEAPFWVK(COCH2)V; thioether 2-19 via Ac) [compound 196] | A (0.7 or more) |
| 69 (LCSYERLQFHGHEAPFRVK(COCH2)V; thioether 2-19 (inferred)) [compound 69] | A (0.7 or more) |
| 110 (HCSYERLQFHGFEAPFRVK(COCH2)V; thioether 2-19 (inferred)) [compound 110] | B (0.5 or more and less than 0.7) |
| 39 (HCSYERLQFHGHEAPFRVKV; also: cyclic peptide, ring not given here) [compound 39] | A (0.7 or more) |
| 55 (HCASYERLQFHGHEAPFRVK(COCH2)V; thioether 2-20 (inferred)) [compound 55] | C (0.1 or more and less than 0.5) |
| 178 (HCSYERLQFHGHLAPFRVK(COCH2)V; thioether 2-19 (inferred)) [compound 178] | A (0.7 or more) |
| 80 (ECSYERLQFHGHEAPFRVKV; not fully specified; Description of Artificial Sequence: Cyclic peptide) [compound 80] | A (0.7 or more) |
| 351 (WCWQAPFNIVVNRKVSVLIVK(COCH2)G; thioether 2-21) [compound 351] | C (0.1 or more and less than 0.5) |
| 40 (QCDVWYWLGHRVPFHPVK(COCH2)V; thioether 2-18 (inferred)) [compound 40] | B (0.5 or more and less than 0.7) |
| 73 (YCSYERLQFHGHEAPFRVK(COCH2)V; thioether 2-19 (inferred)) [compound 73] | A (0.7 or more) |
| 129 (HCSYQRLQFHGHEAPFRVK(COCH2)V; thioether 2-19 (inferred)) [compound 129] | A (0.7 or more) |

| Substance | Evaluation result of binding affinity to FGFR |
| --- | --- |
| 165 (HCSYERLQFIGHEAPFRVK(COCH2)V; thioether 2-19 (inferred)) [compound 165] | A (0.7 or more) |
| 283 (KCSYERLQFHGHEAPFRVK(COCH2)V; thioether 2-19 (inferred)) [compound 283] | B (0.5 or more and less than 0.7) |
| 277 (QCYVQLYVWGHPAPFYWDK(COCH2)I; thioether 2-19 (inferred)) [compound 277] | C (0.1 or more and less than 0.5) |
| 326 (HCSYERLQFHGHIAPFWVK(COCH2)V; thioether 2-19 (inferred)) [compound 326] | A (0.7 or more) |
| 160 (HCSYERLQVHGHEAPFRVK(COCH2)V; thioether 2-19 (inferred)) [compound 160] | C (0.1 or more and less than 0.5) |
| 213 (HCSYERLQFHGHEAPFRVK(COCH2)Y; thioether 2-19 via Ac; not fully specified) [compound 213] | A (0.7 or more) |
| 124 (HCSYVRLQFHGHEAPFRVK(COCH2)V; thioether 2-19 (inferred)) [compound 124] | B (0.5 or more and less than 0.7) |
| 125 (HCSYFRLQFHGHEAPFRVK(COCH2)V; thioether 2-19 (inferred)) [compound 125] | C (0.1 or more and less than 0.5) |
| 151 (HCSYERLWFHGHEAPFRVK(COCH2)V; thioether 2-19 (inferred)) [compound 151] | A (0.7 or more) |
| 249 (RCWKVLKVLGHRAPFLIAK(COCH2)Y; thioether 2-19 (inferred)) [compound 249] | C (0.1 or more and less than 0.5) |
| 332 (HCTYERLIFHGHIAPFWVK(COCH2)V; thioether 2-19 (inferred)) [compound 332] | A (0.7 or more) |
| 251 (DCIWRVTISGHLAPFWFK(COCH2)Y; thioether 2-18 (inferred)) [compound 251] | B (0.5 or more and less than 0.7) |
| 108 (HCSYERLQFHQHEAPFRVK(COCH2)V; thioether 2-19 (inferred)) [compound 108] | C (0.1 or more and less than 0.5) |
| 201 (HCSYERLQFHGHEAPFHVK(COCH2)V; thioether 2-19 via Ac; not fully specified) [compound 201] | A (0.7 or more) |
| 198 (HCSYERLQFHGHEAPFQVK(COCH2)V; thioether 2-19 via Ac) [compound 198] | B (0.5 or more and less than 0.7) |
| 182 (HCSYERLQFHGHYAPFRVK(COCH2)V; thioether 2-19 via Ac) [compound 182] | A (0.7 or more) |
| 154 (HCSYERLTFHGHEAPFRVK(COCH2)V; thioether 2-19 (inferred)) [compound 154] | A (0.7 or more) |
| 344 (RCQPFVQLVFRSLLAPFLVK(COCH2)H; thioether 2-20) [compound 344] | C (0.1 or more and less than 0.5) |
| 145 (HCSYERLGFHGHEAPFRVK(COCH2)V; thioether 2-19 (inferred)) [compound 145] | C (0.1 or more and less than 0.5) |
| 58 (HCSYARLQFHGHEAPFRVK(COCH2)V; thioether 2-19 (inferred)) [compound 58] | B (0.5 or more and less than 0.7) |
| 45 (YCFQKLEFFGHLAPFLFK(COCH2)S; thioether 2-18 (inferred)) [compound 45] | B (0.5 or more and less than 0.7) |
| 226 (HK(COCH2)TWERLIFLGHIAPFWVCR; thioether 2-19 (inferred)) [compound 226] | B (0.5 or more and less than 0.7) |
| 256 (NCWGYHYTIPFIK(COCH2)F; thioether 2-13 (inferred)) [compound 256] | B (0.5 or more and less than 0.7) |
| 82 (HCGYERLQFHGHEAPFRVKV; not fully specified; Description of Artificial Sequence: Cyclic peptide) [compound 82] | A (0.7 or more) |
| 244 (NCWGWAYPIPFRK(COCH2)V; thioether 2-13 (inferred)) [compound 244] | C (0.1 or more and less than 0.5) |
| 197 (HCSYERLQFHGHEAPFNVK(COCH2)V; thioether 2-19 via Ac) [compound 197] | A (0.7 or more) |
